Assay results published in patent US9434725B2, “5-azaindazole compounds and methods of use” (priority 2012, dated 2016).
Where a name gives a salt, the structure may show the parent alone.

Assays:
Assay type in all cases: biochemical
PIM1 = PIM1 (Homo sapiens (Human), UniProt P11309); assay: biochemical; conditions: 10 μM ATP, 90 min, room temperature; read-out: PIM1 LC3K (KI)
Method in brief: (§1)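 Read-out is microfluidic electrophoretic separation of phosphorylated from unphosphorylated fluorescent Pim peptide, with Ki calculated from conversion. Reactions ran 90 min at room temperature in HEPES pH 7.2 containing MgCl2, Tween 20 and DTT, ended by EDTA-containing buffer.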

PIM2 = PIM2 (Homo sapiens (Human), UniProt Q9P1W9); assay: Pim kinase binding activity, Caliper LC3000 microfluidic peptide phosphorylation assay, PIM2; conditions: 10 μM ATP, 90 min, room temperature; read-out: PIM2 LC3K (KI)
Sequence of PIM2 (Q9P1W9 whole entry): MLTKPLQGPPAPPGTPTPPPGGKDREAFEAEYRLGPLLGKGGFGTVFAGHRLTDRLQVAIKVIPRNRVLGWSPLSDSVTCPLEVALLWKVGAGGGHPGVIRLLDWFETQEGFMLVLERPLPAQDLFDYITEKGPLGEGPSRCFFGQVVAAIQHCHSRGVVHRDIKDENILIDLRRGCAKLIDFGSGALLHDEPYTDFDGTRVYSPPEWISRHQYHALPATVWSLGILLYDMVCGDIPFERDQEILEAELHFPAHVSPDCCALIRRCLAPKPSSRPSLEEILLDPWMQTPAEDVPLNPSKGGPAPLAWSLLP
Method in brief: as §1

PIM3 = PIM3 (Homo sapiens (Human), UniProt Q86V86); assay: Pim kinase binding activity, Caliper LC3000 microfluidic peptide phosphorylation assay, PIM3; conditions: 10 μM ATP, 90 min, room temperature; read-out: PIM3 LC3K (KI)
Method in brief: as §1

Sequence of PIM1 (P11309 whole entry): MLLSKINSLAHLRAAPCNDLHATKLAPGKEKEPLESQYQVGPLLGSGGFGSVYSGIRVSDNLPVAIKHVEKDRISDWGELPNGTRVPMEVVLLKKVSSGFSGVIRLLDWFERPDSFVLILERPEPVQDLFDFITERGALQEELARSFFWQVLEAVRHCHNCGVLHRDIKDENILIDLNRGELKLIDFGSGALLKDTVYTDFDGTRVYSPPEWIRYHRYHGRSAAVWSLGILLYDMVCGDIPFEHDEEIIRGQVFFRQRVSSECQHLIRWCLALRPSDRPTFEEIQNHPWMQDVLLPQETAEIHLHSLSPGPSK

| Ki (PIM1) [nM] | Ki (PIM2) [nM] | Ki (PIM3) [nM] | Compound |
| --- | --- | --- | --- |
| 3.81 | 30.3 | 6.01 | FC(F)(F)Cn1cc(-c2cc3c(cn2)cnn3-c2cccc(N3CC4(CNC4)C3)n2)cn1 [Compound 267, 1-(6-(2,6-Diazaspiro[3.3]heptan-2-yl)pyridin-2-yl)-6-(1-(2,2,2-trifluoroethyl)-1H-pyrazol-4-yl)-1H-pyrazolo[4,3-c]pyridine] |
| 15.7 | 194 | 27 | FC(F)(F)Cn1cc(-c2cc3c(cn2)cnn3-c2cccc(N3CC4(CCCCN4)C3)n2)cn1 [Compound 269, 1-(6-(2,5-Diazaspiro[3.5]nonan-2-yl)pyridin-2-yl)-6-(1-(2,2,2-trifluoroethyl)-1H-pyrazol-4-yl)-1H-pyrazolo[4,3-c]pyridine] |
| 1.08 | 20.4 | 0.361 | Cn1cc(-c2cc3c(cn2)cnn3-c2cccc(N3CC(O)(CN)C3)n2)cn1 [Compound 270, 3-(Aminomethyl)-1-(6-(6-(1-methyl-1H-pyrazol-4-yl)-1H-pyrazolo[4,3-c]pyridin-1-yl)pyridin-2-yl)azetidin-3-ol] |
| 0.494 | 34.8 | 0.337 | c1ccc(COc2cncc(-c3cc4c(cn3)cnn4-c3cccc(N4CCNCC4)n3)n2)cc1 [Compound 276, 6-(6-(benzyloxy)pyrazin-2-yl)-1-(6-(piperazin-1-yl)pyridin-2-yl)-1H-pyrazolo[4,3-c]pyridine] |
| 0.698 | 17.5 | 0.37 | O=c1cncc(-c2cc3c(cn2)cnn3-c2cccc(N3CCNCC3)n2)[nH]1 [Compound 287, 6-[1-(6-piperazin-1-yl-2-pyridyl)pyrazolo[4,3-c]pyridin-6-yl]-1H-pyrazin-2-one] |
| 0.918 | 5.56 | 0.564 | Cc1cncc(-c2cc3c(cn2)cnn3-c2cccc(C3(O)CCCNC3)n2)n1 (stereo not drawn) [Compound 288, 3-(6-(6-(6-methylpyrazin-2-yl)-1H-pyrazolo[4,3-c]pyridin-1-yl)pyridin-2-yl)piperidin-3-ol] |
| 0.644 | 3.58 | 0.481 | Cc1cncc(-c2cc3c(cn2)cnn3-c2cccc(N3CCC(O)C(O)C3)n2)n1 (stereo not drawn) [Compound 312, 1-(6-(6-(6-methylpyrazin-2-yl)-1H-pyrazolo[4,3-c]pyridin-1-yl)pyridin-2-yl)piperidine-3,4-diol] |

| Compound | Ki (PIM1) [nM] | Ki (PIM2) [nM] | Ki (PIM3) [nM] |
| --- | --- | --- | --- |
| Clc1cncc(-c2cc3c(cn2)cnn3-c2cccc(N3CCNCC3)n2)n1 [Compound 275, 6-(6-Chloropyrazin-2-yl)-1-(6-(piperazin-1-yl)pyridin-2-yl)-1H-pyrazolo[4,3-c]pyridine dihydrochloride] | 0.725 | 5.74 | 0.267 |
| OC[C@@H]1CCCN1c1cncc(-c2cc3c(cn2)cnn3-c2cccc(N3CCNCC3)n2)n1 [Compound 280, (S)-(1-(6-(1-(6-(piperazin-1-yl)pyridin-2-yl)-1H-pyrazolo[4,3-c]pyridin-6-yl)pyrazin-2-yl)pyrrolidin-2-yl)methanol dihydrochloride] | 0.051 | 18 | 0.101 |
| Cn1ncc(-c2cc3c(cn2)cnn3-c2ccccc2F)c1Cl [Compound 309, 6-(5-chloro-1-methyl-1H-pyrazol-4-yl)-1-(2-fluorophenyl)-1H-pyrazolo[4,3-c]pyridine] | 487 | 2200 | 944 |
| Cn1ncc(-c2cc3c(cn2)cnn3-c2ccccc2F)c1C1=CCNCC1 [Compound 314, 1-(2-fluorophenyl)-6-(1-methyl-5-(1,2,3,6-tetrahydropyridin-4-yl)-1H-pyrazol-4-yl)-1H-pyrazolo[4,3-c]pyridine] | 130 | 1100 | 166 |
